In PubChem BioAssay AID330 (DTP/NCI, 2004):
Where “and” joins values, the source holds several entries; their conditions need not be identical. Equal values may be shown once. Inconclusive results and toxic doses are left out. The calls were made as follows: active = survival T/C of 150% or more; inactive = T/C below 125% in these data.

Test system: P388 leukemia ip, CD2F1 mice, survival T/C
Experiment: NCI In Vivo Anticancer Drug Screen. Data for tumor model P388 Leukemia (intraperitoneal) in CD2F1 (CDF1) mice
Details: endpoint: median survival time, higher = longer survival
In short: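 Mice carrying the transplanted tumor received test compound or vehicle. Survival was recorded in each group, and the value is the treated-group measurement divided by that of the vehicle-treated control group.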

[1] = dose: 100.0 mg/kg/injection, schedule: Q04DX002 (ip), vehicle: saline with Tween-80
[2] = dose: 200.0 mg/kg/injection, schedule: Q04DX002 (ip), vehicle: saline with Tween-80
[3] = dose: 400.0 mg/kg/injection, schedule: Q04DX002 (ip), vehicle: saline with Tween-80
[4] = dose: 25.0 mg/kg/injection, schedule: Q01DX009 (ip), vehicle: saline with Tween-80
[5] = dose: 50.0 mg/kg/injection, schedule: Q01DX009 (ip), vehicle: Klucel (hydroxypropylcellulose) (HPC)
[6] = dose: 100.0 mg/kg/injection, schedule: Q01DX009 (ip), vehicle: Klucel (hydroxypropylcellulose) (HPC)
[7] = dose: 200.0 mg/kg/injection, schedule: Q01DX009 (ip), vehicle: Klucel (hydroxypropylcellulose) (HPC)
[8] = dose: 50.0 mg/kg/injection, schedule: Q01DX009 (ip), vehicle: saline with Tween-80
[9] = dose: 100.0 mg/kg/injection, schedule: Q01DX009 (ip), vehicle: saline with Tween-80
[10] = dose: 60.0 mg/kg/injection, schedule: Q01DX005 (ip), vehicle: saline with Tween-80
[11] = dose: 120.0 mg/kg/injection, schedule: Q01DX005 (ip), vehicle: saline with Tween-80
[12] = dose: 240.0 mg/kg/injection, schedule: Q01DX005 (ip), vehicle: saline with Tween-80

Measured: T/C

O=C(/C=C/c1ccc(O)cc1)OCC1OC(Oc2cc(O)c3c(c2)OC(c2ccc(O)cc2)CC3=O)C(O)C(O)C1O (stereo unspecified)
inactive: dose: 100.0 mg/kg/injection, schedule: Q04DX002 (ip), vehicle: saline 107 % of control | dose: 200.0 mg/kg/injection, schedule: Q04DX002 (ip), vehicle: saline 94 % of control | dose: 400.0 mg/kg/injection, schedule: Q04DX002 (ip), vehicle: saline 107 % of control

CCOC(=O)C12CCC(C(=O)OCC)(CC13SCCS3)C1(C2)SCCS1
inactive: dose: 100.0 mg/kg/injection, schedule: Q01DX001 (ip), vehicle: saline with Tween-80 97 % of control | dose: 200.0 mg/kg/injection, schedule: Q01DX001 (ip), vehicle: saline with Tween-80 99 % of control | dose: 400.0 mg/kg/injection, schedule: Q01DX001 (ip), vehicle: saline with Tween-80 97 % of control

COc1ccc(OC)c(CC=C(C)C)c1
inactive: dose: 15.25 mg/kg/injection, schedule: Q01DX009 (ip), vehicle: Klucel (hydroxypropylcellulose) (HPC) 100 % of control | dose: 30.5 mg/kg/injection, schedule: Q01DX009 (ip), vehicle: Klucel (hydroxypropylcellulose) (HPC) 97 % of control | dose: 61.0 mg/kg/injection, schedule: Q01DX009 (ip), vehicle: Klucel (hydroxypropylcellulose) (HPC) 107 % of control | dose: 122.0 mg/kg/injection, schedule: Q01DX009 (ip), vehicle: Klucel (hydroxypropylcellulose) (HPC) 100 % of control

O=C(O)CSc1cc2c3ccccc3sc2c2ccccc12
inactive: dose: 40.0 mg/kg/injection, schedule: Q01DX005 (ip), vehicle: Klucel (hydroxypropylcellulose) (HPC) 100 % of control | dose: 80.0 mg/kg/injection, schedule: Q01DX005 (ip), vehicle: Klucel (hydroxypropylcellulose) (HPC) 107 % of control | dose: 160.0 mg/kg/injection, schedule: Q01DX005 (ip), vehicle: Klucel (hydroxypropylcellulose) (HPC) 106 % of control

CCCCN(CC(O)c1cc2c(c3ccccc13)CCCC2)c1ccc(OC)cc1 (stereo unspecified)
inactive: dose: 50.0 mg/kg/injection, schedule: Q01DX005 (ip), vehicle: saline with Tween-80 115 % of control | dose: 100.0 mg/kg/injection, schedule: Q01DX005 (ip), vehicle: saline with Tween-80 101 % of control | dose: 200.0 mg/kg/injection, schedule: Q01DX005 (ip), vehicle: saline with Tween-80 101 % of control

CC(C)(C)c1cc2c(=O)o[s+]3oc(=O)c(c1)c23
inactive: dose: 6.25 mg/kg/injection, schedule: Q01DX009 (ip), vehicle: Klucel (hydroxypropylcellulose) (HPC) 107 % of control | dose: 12.5 mg/kg/injection, schedule: Q01DX009 (ip), vehicle: Klucel (hydroxypropylcellulose) (HPC) 104 % of control | dose: 25.0 mg/kg/injection, schedule: Q01DX009 (ip), vehicle: Klucel (hydroxypropylcellulose) (HPC) 111 % of control

COC(=O)c1c(-c2ccc(OC)c(OC)c2)c(C=O)n(C)c1C
inactive: [1] 99 % of control | [2] 91 % of control | [3] 90 % of control

Cc1ccc(S(=O)(=O)N/N=C/C=N/NS(=O)(=O)c2ccc(C)cc2)cc1
inactive: dose: 12.5 mg/kg/injection, schedule: Q01DX009 (ip), vehicle: other 106 % of control | dose: 25.0 mg/kg/injection, schedule: Q01DX009 (ip), vehicle: other 107 % of control | dose: 50.0 mg/kg/injection, schedule: Q01DX009 (ip), vehicle: other 105 % of control | dose: 100.0 mg/kg/injection, schedule: Q01DX009 (ip), vehicle: other 96 % of control | dose: 200.0 mg/kg/injection, schedule: Q01DX009 (ip), vehicle: other 97 % of control

CCN(C)N=Nc1cccnc1
inactive: dose: 12.5 mg/kg/injection, schedule: Q01DX009 (ip), vehicle: saline 103 % of control and 92 % of control and 97 % of control | dose: 25.0 mg/kg/injection, schedule: Q01DX009 (ip), vehicle: saline 100 % of control and 102 % of control and 92 % of control | dose: 50.0 mg/kg/injection, schedule: Q01DX009 (ip), vehicle: saline 103 % of control and 111 % of control and 91 % of control | dose: 100.0 mg/kg/injection, schedule: Q01DX009 (ip), vehicle: saline 107 % of control and 110 % of control

CCOC(=O)C1Cc2c([nH]c(=O)[nH]c2=O)OC1c1cccc(Cl)c1 (stereo unspecified)
inactive: dose: 3.12 mg/kg/injection, schedule: Q01DX009 (ip), vehicle: saline with Tween-80 94 % of control | dose: 6.25 mg/kg/injection, schedule: Q01DX009 (ip), vehicle: saline with Tween-80 93 % of control | dose: 12.5 mg/kg/injection, schedule: Q01DX009 (ip), vehicle: saline with Tween-80 96 % of control | [4] 100 % of control

CCOC(=O)C(SC(S(=O)(=O)c1ccccc1)S(=O)(=O)c1ccccc1)C(=O)OCC
inactive: [5] 98 % of control | [6] 90 % of control | [7] 90 % of control

O=c1cn[nH]c(=O)[nH]1
inactive: dose: 62.5 mg/kg/injection, schedule: Q01DX010 (ip), vehicle: saline 100 % of control | dose: 125.0 mg/kg/injection, schedule: Q01DX010 (ip), vehicle: saline 91 % of control | dose: 250.0 mg/kg/injection, schedule: Q01DX010 (ip), vehicle: saline 91 % of control

CC(=O)c1ccccc1C(C)C
inactive: [4] 100 % of control | [8] 109 % of control | [9] 119 % of control

O=C(N/N=C/c1ccc(F)cc1)c1ccncc1
inactive: [8] 91 % of control | [9] 92 % of control | dose: 200.0 mg/kg/injection, schedule: Q01DX009 (ip), vehicle: saline with Tween-80 90 % of control

CC(C)=CCC/C(C)=C/COc1cc(O)c2c(c1)C(=O)c1cc(C)cc(O)c1C2=O
inactive: dose: 5.0 mg/kg/injection, schedule: Q01DX009 (ip), vehicle: DMSO 100 % of control | dose: 10.0 mg/kg/injection, schedule: Q01DX009 (ip), vehicle: DMSO 97 % of control | dose: 20.0 mg/kg/injection, schedule: Q01DX009 (ip), vehicle: DMSO 97 % of control

O=C1C2=C(Nc3cc([N+](=O)[O-])ccc3N2)OC1c1ccc(Cl)cc1Cl (stereo unspecified)
inactive: dose: 30.0 mg/kg/injection, schedule: Q01DX005 (ip), vehicle: Klucel (hydroxypropylcellulose) (HPC) 101 % of control | dose: 60.0 mg/kg/injection, schedule: Q01DX005 (ip), vehicle: Klucel (hydroxypropylcellulose) (HPC) 89 % of control and 94 % of control | dose: 120.0 mg/kg/injection, schedule: Q01DX005 (ip), vehicle: Klucel (hydroxypropylcellulose) (HPC) 99 % of control | dose: 240.0 mg/kg/injection, schedule: Q01DX005 (ip), vehicle: Klucel (hydroxypropylcellulose) (HPC) 111 % of control

COc1nc(NC2OC(CO)C(O)C(O)C2O)c(C(=O)CCl)c(=O)n1C (stereo unspecified)
inactive: [10] 92 % of control | [11] 87 % of control | [12] 95 % of control and 96 % of control

COP(=O)(OC)C1(C(C)(C)C)CO1 (stereo unspecified)
inactive: [5] 99 % of control | [6] 88 % of control | [7] 94 % of control

O=C(/C=C\c1ccc(C2OCCO2)cc1)c1ccccc1
inactive: [1] 111 % of control | [2] 103 % of control | [3] 92 % of control

CCOC(=O)/C=C1/Nc2ccc(Cl)cc2NC1=O (tested in a mixture with another compound)
inactive: dose: 50.0 mg/kg/injection, schedule: Q01DX009 (ip), vehicle: distilled water + Tween-80 + alcohol 96 % of control | dose: 100.0 mg/kg/injection, schedule: Q01DX009 (ip), vehicle: distilled water + Tween-80 + alcohol 88 % of control | dose: 200.0 mg/kg/injection, schedule: Q01DX009 (ip), vehicle: distilled water + Tween-80 + alcohol 88 % of control

COc1cc[n+](CC(=O)c2c[nH]c3ccccc23)cc1
inactive: [5] 103 % of control | [6] 109 % of control

CC1(C)N=C(Oc2ccc(Cl)cc2Cl)NC(=S)N1
inactive: [10] 95 % of control | [11] 97 % of control | [12] 95 % of control
